Test results from patent US20240271096A1, “EFFICIENT DIFFERENTIATION OF SECOND HEART FIELD CARDIAC PROGENITOR CELLS AND RIGHT VENTRICLE CARDIOMYOCYTES FROM HUMAN PLURIPOTENT STEM CELLS” (Wisconsin Alumni Research Foundation, priority 2023, published 2024).

System: HES3-TBX5-TdTomato^+/W/NKX2-5^eGFP/W reporter hESC line
Experiment: NKX2-5-eGFP and TBX5-tdTomato reporter expression during GiWi cardiac differentiation (fluorescence microscopy)
Assay type: cell-based, human
Source text: Human iPSCs (hiPSCs) were established from a healthy donor (FIG. 1), 201B7 hiPSCs (RIKEN BRC, Tsukuba, Japan), and HES3-TBX5-TdTomato^+/W/NKX2-5^eGFP/Wreporter hESCs that were a kind gift from Dr. Reza Ardehali, UCLA Geffen School of Medicine (Pezhouman et al., 2022, Cardiovasc Res. 118(3):828-43), were used. HiPSCs were maintained on iMatrix-511 (Matrixome, Osaka, Japan)-coated 6-well plates (Corning, Glendale, Arizona, United States) in StemFit AK02N (Ajinomoto, Tokyo, Japan) and passaged every 7 days.
HESCs were maintained on Matrigel Growth Factor Reduced Basement Membrane Matrix (Corning)-coated 6-well plates (Corning) in StemFlex Medium (Thermo Fisher Scientific, Waltham, MA, United States) and passaged every 3-4 days. StemPro Accutase Cell Dissociation Reagent (Thermo Fisher Scientific) was used for dissociation. 10 μmol/L Y27632 (Tocris, Bristol, United Kingdom) was used for improvement of cell survival for 24 hours after seeding. Mycoplasma tests were performed for all the cell culture in this study.
For LV-cardiomyocyte differentiation, cardiac differentiation was performed according to the protocol published by (Lian et al., 2012, Proc Natl Acad Sci USA 109:E1848-57). Cells were dissociated with StemPro Accutase Cell Dissociation Reagent at 37° C. for 5 minutes. HESCs were seeded on Matrigel-coated 24-well plates (Corning) in StemFlex Medium supplemented with 10 μmol/L Y-27632. HiPSCs were seeded on iMatrix-511-coated 12-well plates (Corning) in StemFit AK02N supplemented with 10 μmol/L Y-27632 at seeding densities of 1×10^5 cells/cm^2 for hESCs and 1.25-2.5×10^4 cells/cm^2 for hiPSCs. Cells were cultured for 4 days until the start of differentiation (day 0). On day 0, the medium was changed to RPMI 1640 Medium (Thermo Fisher Scientific) supplemented with B-27 Supplement minus insulin (Thermo Fisher Scientific) (RPMI/B27-insulin) or B-27 Supplement with insulin (Thermo Fisher Scientific), and 12 μmol/L CHIR 99021 (SelleckChem, Houston, TX, United States), and the cells incubated in this medium for 24 h (day 1). On day 1, the medium was changed to RPMI/B27-insulin. To enhance cardiac differentiation, 50 μmol/L 2-O-α-D-glucopyranosyl-L-ascorbic acid (Tokyo Chemical Industry, Tokyo, Japan) was added on day 1 only for hiPSCs (Burridge et al., 2014 Nat Methods, 11:855-860). On day 3, the medium was changed to RPMI/B27-insulin supplemented with 5 μmol/L IWP2 (SelleckChem) and on day 5, the medium was changed to 1 ml RPMI/B27-insulin. From day 7, the cells were cultured with RPMI/B27-insulin, and the cells were fed every other day. On day 12, the cells were washed with PBS (Thermo Fisher Scientific) and cultured with DMEM or RPMI, no glucose supplemented with 8 mmol/L L-(+)-Lactic acid (Merck) (Tohyama et al., 2013 Cell Stem Cell, 12:127-37). The medium was changed every other day until day 17. After day 17, the cells were cultured with RPMI/B27 and fed every 2 to 3 days. For long-term culture, the cells were dissociated with TrypLE™ Select Enzyme (10×) (Thermo Fisher Scientific) at 37° C. for 15-20 minutes and seeded on Matrigel- or iMatrix-511-coated plates. For RV-cardiomyocyte induction, Dorsomorphin 2HCl (SelleckChem), dorsomorphin homologue 1 (DMH1) (SelleckChem), or 3 μg/L insulin were used from day 0 to day 1. For FIG. 15A and FIG. 15B, dorsomorphin (DM) or 3 μg/L insulin were added on day 0 (for 24 hours), 1, 3, or 5 (for 48 hours).

[1] = 3 μg/mL insulin on day 0, read day 13
[2] = B-27 supplement containing insulin on differentiation day 0, read day 7 (cardiac progenitor stage)
[3] = B-27 supplement containing insulin on differentiation day 0, read day 14 (cardiomyocyte stage)

For insulin, which Nkx2.5-eGFP expression [1] is on record?
The Nkx2.5-eGFP expression was “strong”.

What about the TBX5-tdTomato expression [1] of the same substance?
The TBX5-tdTomato expression was “without TBX5-tdTomato expression”.

What about the “eGFP and TBX5-tdTomato expression” value (10 μg/mL insulin on day 0, read day 13) of the same substance?
Its value is “very low”.

And the “TBX5-tdTomato expression, dose dependence” value (0.1, 0.3, 1, and 3 μg/mL insulin on day 0, read day 13)?
Its value is “decreased with increasing doses”.

What about the NKX2-5-eGFP expression [2] of the same substance?
Its NKX2-5-eGFP expression is “low”.

And the TBX5-tdTomato expression [2]?
The TBX5-tdTomato expression was “low”.

What about the NKX2-5-eGFP expression [3] of the same substance?
The NKX2-5-eGFP expression was “high”.

What about the TBX5-tdTomato expression [3] of the same substance?
The TBX5-tdTomato expression was “low”.
